Test results: US20140335050A1, “METHODS, COMPOSITIONS, AND KITS FOR THE TREATMENT OF CANCER” (The General Hospital Corporation, priority 2011, published 2014)

How the values were obtained:
Format in all cases: cell-based, human
[1] = test system: MU89 MART::EGFP cell line; experiment: Melan-A/MART-1 promoter-driven EGFP reporter, kinetics by flow cytometry; details: MU89 MART::EGFP (FIG. 11)
Method: FIG. 11 is a set of four graphs showing the kinetics of Melan-A/MART-1 increase. […] The same number of cells per well were plated in each well of a 24 well plate and drug was added on day zero. Each day cells were collected and assayed for that time point. Control untreated cells are shown for comparison. The data are from one representative experiment.
A kinetic analysis was performed to determine the effect of Hsp90 inhibition on Melan-A/MART-1 promoter activity over time. […] Reporter activity increases steadily for the first 72 hours of Hsp90 inhibition, and then plateaus. The need for continued presence of Hsp90 inhibitors in order for them to be effective (i.e. whether the drug can be removed after short exposure, or whether it must it be continually present) was assessed. […] To achieve full signal enhancement, it is desirable to retain the drug for at least 48 hours, after which the effect remains constant or slightly decreases.
The generation and application of EGFP reporter cells has been previously described. Briefly, a 1200 base pair human genomic DNA segment encompassing the Melan-A/MART-1 promoter was used to generate a construct driving expression of the EGFP reporter gene. Stable transfectants with this construct were generated in the low-antigen cell line A375 and the high-antigen line MM96L+ and MU89. The EGFP expression response patterns of these cells to IFN-beta and MAP kinase inhibitors recapitulates the antigen up-regulation of endogenous Melan-A/MART-1 induced by these agents.
(§1) Intracellular staining and flow cytometric analyses of cytoplasmic Melan-A/MART-1, and gp100 expression were performed as described previously. Cells were fixed with 1% formaldehyde, permeabilized with 0.1% saponin, stained with monoclonal antibodies to melanocyte antigens. Antibodies were obtained with specificity for: Melan-A/MART-1 from Vector Labs (Burlingame, Calif.); gp100/HMB45 from DakoCytomation (Carpinteria, Calif.) and then visualized with goat anti-mouse FITC-conjugated secondary antibody from Invitrogen (Frederick, Md.). The level of EGFP was determined by flow cytometry of unfixed cells washed and resuspended in 1×PBS. Surface staining of MHC Class I was carried out using the antibody W6/32 on cells harvested with Cell Stripper from MediaTech Inc. (Manassas, Va.) and carried out on ice.

[2] = test system: Jurkat T cell lymphoma cells; experiment: Surface antibody staining and flow cytometry (MHC Class I/II)
Method: as §1
(§2) For surface staining of HLA Class I and II antigens, cells were harvested using CellStripper™ from Mediatech (Manassas, Va.). All staining steps were performed on ice. Following a first incubation with antibody to Class I (W6/32) or Class II (L243) for 30 minutes. Stained cells were washed twice with cold PBS and then stained with a goat anti-mouse FITC secondary antibody to allow for quantitative analysis by flow cytometry. For evaluation of cytoplasmic antigens, including Melan-A/MART-1 and gp100, cells were first fixed in paraformaldehyde and permeabilized with saponin as previously described. Staining for cytoplasmic antigens was carried out at room temperature (22° C.).

[3] = test system: EBV-19 B cell lymphoma cells; experiment: as above; details: three days, IFN-β 5000 Units/ml
Method: as §1, §2

tumor cell lines = experiment: MHC Class I and Class II surface staining, statements over a panel of tumor cell lines; details: HeLa, MCF-7, U2-OS, MU-89, U118, Jurkat, Raji (Table 19)
Method: as §2

[4] = test system: MALME-3M melanoma cell line; experiment: Antibody staining and flow cytometry (intracellular Melan-A/MART-1, gp100, TRP-2; surface MHC Class I); details: for MHC Class I, geometric mean of surface staining (W6/32): MALME, three days, IFN-β 5000 Units/ml
Method: (§3) Cells were fixed with 1% formaldehyde, permeabilized with 0.1% saponin, stained with monoclonal antibodies to melanocyte antigens. Antibodies were obtained with specificity for: MART-1 from Vector Labs (Burlingame, Calif.); gp100 HMB45 from DakoCytomation (Carpinteria, Calif.) and then visualized with goat anti-mouse FITC-conjugated secondary antibody from Invitrogen (Fredrick, Md.). The level of EGFP was determined by flow cytometry of unfixed cells that were washed and resuspended in 1×PBS.
(§4) Cells were plated at a density of 1×10^5 in 1 ml of medium in a 24-well plate and cultured for varying times as indicated in results. […] After incubation, cells were collected by trypsinization and then evaluated by flow cytometry.
as §1

[5] = test system: U-118 MG glioma cell line; experiment: Antibody staining and flow cytometry (intracellular gp100; surface MHC Class I/II); details: for Class I MHC, geometric mean of surface staining (W6/32): U-118
Method: as §3, §4, §1
Cell were seeded at 1×10^6 cells in a T25 flask with 10 ml of media for the 4 day IFN-beta pre-treatments. Cells were then harvested and plated in 24 well plate at 1×10^5 cells per well in 1 ml of media for 3 day treatments.
as §2

453A melanoma cell line = experiment: Intracellular antibody staining and flow cytometry (Melan-A/MART-1, gp100/HMB45); details: 453A (BRAF M/WT, NRAS WT); 3 days; 17-AEP 1.00, CCT018159 10.00, PU-H71 0.30 μg/ml
Method: as §3, §4
as §1, with “Surface staining of MHC Class I was carried out using the antibody W6/32 on cells harvested with Cell Stripper from MediaTech Inc. (Manassas, Va.) and carried out on ice.” left out

[6] = MALME-3M, 3 days, IFN-beta 5000 Units/ml, 17-AEP 1.0, PU-H71 0.3, CCT018159 10.0 μg/ml
[7] = U118 cells, Table 20, single agent or simultaneous combination
[8] = U-118 MG, 3 days, IFN-beta 5000 Units/ml, 17-AEP 1.0, PU-H71 0.3, CCT018159 10.0 μg/ml
[9] = MALME-3M (BRAF M/WT, NRAS WT), 3 days, 17-AEP 0.25, CCT018159 5.00, PU-H71 0.30 μg/ml

Structure (SMILES): CC(C)NCCCn1c(Sc2cc3c(cc2I)OCO3)nc2c(N)ncnc21 [PU-H71]
- Time at which the fluorescent reporter signal is significantly enhanced (as early as) [1]: 2 days
- L243 (MHC Class II surface staining) ([2]; single agent): 1.2
- MHC Class I, geometric mean of surface staining (W6/32) ([2]; three days, IFN-β 5000 Units/ml, IFN-γ 100 ng/ml, PU-H71 0.3 μg/ml): 24
- MHC Class II, geometric mean of surface staining (L2443) ([2]; three days, IFN-β 5000 Units/ml, IFN-γ 100 ng/ml, PU-H71 0.3 mg/ml): 1
- MHC Class I, geometric mean of surface staining (W6/32) ([2]; three days, IFN-β 5000 Units/ml, PU-H71 0.075-0.3 μg/ml): 41
- MHC Class II, geometric mean of surface staining (L2443) ([3]; IFN-γ 100 ng/ml, PU-H71 0.3 mg/ml): 114
- MHC Class I, geometric mean of surface staining (W6/32) ([3]; IFN-γ 100 ng/ml, PU-H71 0.3): 124
- MHC Class I, geometric mean of surface staining (W6/32) ([3]; PU-H71 0.075-0.3): 119
- Class II MHC expression over the tumor panel (tumor cell lines): no induction
- Class I, geometric mean of surface staining (W6/32) [4, 6]: 137
- MART-1, geometric mean of intracellular staining [4, 6]: 226
- TRP-2, geometric mean of intracellular staining [4, 6]: 279
- gp100, geometric mean of intracellular staining [4, 6]: 511
- MHC Class I, geometric mean of surface staining (W6/32) [4]: 137
- MHC Class II, geometric mean of surface staining (L2443) ([5]; Giloma-118, three days, IFN-β 5000 Units/ml, IFN-γ 100 ng/ml, PU-H71 0.3 mg/ml): 4
- MHC Class I, geometric mean of surface staining (W6/32) ([5]; Giloma-118, three days, IFN-β 5000 Units/ml, IFN-γ 100 ng/ml, PU-H71 0.3): 88
- Class II induction, combination ([5]; U118, co-treatment with IFN-gamma and PU-H71): prevented
- L243 (MHC Class II surface staining) ([5]; U118, single agent): 4.1
- L243 (MHC Class II surface staining) [5, 7]: 6.3
- W6/32 (MHC Class I surface staining) [5, 7]: 135.7
- Class I MHC, geometric mean of surface staining (W6/32) ([5]; 4 day IFN-β pre-treatment (5000 Units/ml), then 3 days with fresh IFN-β, with PU-H71 0.3 where labelled (label IFN-β: no inhibitor)): 184
- Class I MHC, geometric mean of surface staining (W6/32) ([5]; 4 day IFN-β pre-treatment (5000 Units/ml), then 3 days without IFN-β, with PU-H71 0.3 where labelled (label IFN-β: no inhibitor)): 224
- Class I MHC, geometric mean of surface staining (W6/32) ([5]; single agent for 3 days, no IFN-β pre-treatment, IFN-β 5000 Units/ml, PU-H71 0.3): 138
- gp100, geometric mean of intracellular staining [5, 8]: 63
- MHC Class I, geometric mean of surface staining (W6/32) ([5]; U-118 glioma, three days, IFN-β 5000 Units/ml, PU-H71 0.075-0.3): 88

Structure (SMILES): CO[C@H]1/C=C\C=C(/C)C(=O)NC2=CC(=O)C(NCCN3CCCC3)=C(C[C@@H](C)C[C@H](OC)[C@H](O)[C@@H](C)/C=C(\C)[C@@H]1OC(N)=O)C2=O [17-AEP]
- Time at which the fluorescent reporter signal is significantly enhanced (as early as) [1]: 2 days
- Class I, geometric mean of surface staining (W6/32) [4, 6]: 105
- MART-1, geometric mean of intracellular staining [4, 6]: 205
- TRP-2, geometric mean of intracellular staining [4, 6]: 256
- gp100, geometric mean of intracellular staining [4, 6]: 839
- MHC Class I, geometric mean of surface staining (W6/32) [4]: 105
- Class I, geometric mean of surface staining (W6/32) [5, 8]: 117
- gp100, geometric mean of intracellular staining [5, 8]: 61

Structure (SMILES): CCc1cc(-c2n[nH]c(C)c2-c2ccc3c(c2)OCCO3)c(O)cc1O [CCT018159]
- Time at which the fluorescent reporter signal is significantly enhanced (as early as) [1]: 2 days
- HMB45, level of induction relative to untreated control cells (453A melanoma cell line): 3.38
- MART-1, level of induction relative to untreated control cells (453A melanoma cell line): 3.29
- HMB45, level of induction relative to untreated control cells [4, 9]: 3.63
- MART-1, level of induction relative to untreated control cells [4, 9]: 2.48
- Class I, fold increase relative to untreated control [4, 6]: 1.6 fold
- Class I, geometric mean of surface staining (W6/32) [4, 6]: 72
- MART-1, fold increase relative to untreated control [4, 6]: 2.5 fold
- MART-1, geometric mean of intracellular staining [4, 6]: 291
- TRP-2, fold increase relative to untreated control [4, 6]: 2.1 fold
- TRP-2, geometric mean of intracellular staining [4, 6]: 222
- gp100, fold increase relative to untreated control [4, 6]: 3.6 fold
- gp100, geometric mean of intracellular staining [4, 6]: 823
- MHC Class I, geometric mean of surface staining (W6/32) [4]: 72
- Class I, fold increase relative to untreated control [5, 8]: 2.0 fold
- Class I, geometric mean of surface staining (W6/32) [5, 8]: 101
- gp100, fold increase relative to untreated control [5, 8]: 1.4 fold
- gp100, geometric mean of intracellular staining [5, 8]: 83
